Experiments:
Abl kinase = target: T1, Abl kinase (Homo sapiens, UniProt P00519); assay: Abl kinase assay A1 (pyruvate kinase/lactate dehydrogenase coupled, spectrophotometric); assay type: biochemical; conditions: Method A1; for IC50: read-out: Abl Data (IC50)
T1 sequence (P00519 229-512): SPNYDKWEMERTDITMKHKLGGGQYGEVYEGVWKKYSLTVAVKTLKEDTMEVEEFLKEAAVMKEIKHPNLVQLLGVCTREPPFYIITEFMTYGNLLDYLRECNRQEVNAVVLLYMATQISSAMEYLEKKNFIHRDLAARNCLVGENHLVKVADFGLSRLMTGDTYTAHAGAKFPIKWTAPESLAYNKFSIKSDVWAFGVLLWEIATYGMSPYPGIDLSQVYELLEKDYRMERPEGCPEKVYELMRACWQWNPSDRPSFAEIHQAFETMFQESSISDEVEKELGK
Procedure: IC50 values were calculated from a series of percent inhibition values determined at a range of inhibitor concentrations using software routines as implemented in the GraphPad Prism software package.

B-Raf(V599E) kinase = B-Raf(V599E) kinase (Homo sapiens, UniProt P15056, V600E); assay: B-Raf(V599E) kinase assay B1 (construct 1, MEK1 substrate, coupled spectrophotometric); assay type: biochemical
Procedure: The test compounds were incubated with the reaction mixtureat 30° C. for 2 h. […] The reaction rate was calculated using the […] time frame. […] IC50 values were calculated from a series of percent inhibition values determined at a range of inhibitor concentrations using software routines as implemented in the GraphPad Prism software package.

Chain of B-Raf(V599E) kinase (P15056 with tags, fused parts or gaps V600E): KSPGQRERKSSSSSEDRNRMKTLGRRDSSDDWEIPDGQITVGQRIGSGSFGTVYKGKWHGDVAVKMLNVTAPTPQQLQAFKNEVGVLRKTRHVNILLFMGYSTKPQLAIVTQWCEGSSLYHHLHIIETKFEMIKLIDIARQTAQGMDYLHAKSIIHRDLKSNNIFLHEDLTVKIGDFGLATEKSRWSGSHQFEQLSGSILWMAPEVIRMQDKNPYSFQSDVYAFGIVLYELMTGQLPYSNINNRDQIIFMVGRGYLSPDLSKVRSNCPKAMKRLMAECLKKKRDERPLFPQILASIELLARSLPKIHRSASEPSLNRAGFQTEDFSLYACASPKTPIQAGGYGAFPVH

Row | Compound | IC50 (Abl kinase) | IC50 (B-Raf(V599E) kinase) | inhibition at 10 µM (Abl kinase; @ 10 μM, read-out: Abl Data (percent inhibition))
1 | CC(C)(C)c1cc(NC(=O)Nc2cccc(F)c2F)n(-c2ccc3c(c2)CCNC3)n1 [Example 144, 1-(3-t-butyl-1-(1,2,3,4-tetrahydroiso-quinolin-6-yl)-1H-pyrazol-5-yl)-3-(2,3-difluorophenyl)-urea] | 200 nM | 9.6 nM | –
2 | CC(C)(C)c1cc(NC(=O)Nc2cccc(Br)c2)n(-c2cccc(CN)c2)n1 [Example 41, 1-(1-[3-(aminomethyl)phenyl]-3-t-butyl-1H-pyrazol-5-yl)-3-(3-bromophenyl)urea] | 3700 nM | 89 nM | –
3 | CC(C)(C)c1cc(NC(=O)Nc2cc(F)c(F)c(F)c2)n(-c2cc(CO)c3ccccc3c2)n1 [Example 66, 1-(3-t-butyl-1-(4-(hydroxymethyl)naphthalen-2-yl)-1H-pyrazol-5-yl)-3-(3,4,5-trifluorophenyl)urea] | 71 nM | 8.5 nM | –
4 | CC(C)(C)c1cc(NC(=O)Nc2ccc(F)cc2F)n(-c2cc(CC(N)=O)c3ccccc3c2)n1 [Example 82, 1-(1-(4-(2-amino-2-oxoethyl)naphthalen-2-yl)-3-t-butyl-1H-pyrazol-5-yl)-3-(2,4-difluorophenyl)urea] | 360 nM | 5.9 nM | –
5 | CC(C)(C)c1cc(NC(=O)Nc2cccc(C#N)c2)n(-c2ccc3c(c2)CNCC3)n1 [Example 125, 1-(3-t-butyl-1-(1,2,3,4-tetrahydroisoquinolin-7-yl)-1H-pyrazol-5-yl)-3-(3-cyanophenyl)urea] | 180 nM | – | –
6 | CC(C)(C)c1cc(NC(=O)Nc2ccc(C#N)cc2)n(-c2cc(CC(N)=O)c3ccccc3c2)n1 [Example 79, 1-(1-(4-(2-amino-2-oxoethyl)naphthalen-2-yl)-3-t-butyl-1H-pyrazol-5-yl)-3-(4-cyanophenyl)urea] | 180 nM | – | –
7 | CC(C)(C)c1cc(NC(=O)Nc2ccc3c(c2)OCO3)n(-c2cccc(C#N)c2)n1 [Example 6, 1-(benzo[d][1,3]dioxol-5-yl)-3-(3-t-butyl-1-(3-cyanophenyl)-1H-pyrazol-5-yl)urea] | 3000 nM | 180 nM | –
8 | CC(C)(C)c1cc(NC(=O)Nc2cccc(Cl)c2Cl)n(-c2ccc3c(c2)C(O)CC3)n1 (centres unmarked) [Example 103, 1-[5-t-butyl-2-(3-hydroxy-indan-5-yl)-2H-pyrazol-3-yl]-3-(2,3-dichlorophenyl)urea] | 240 nM | 4.5 nM | –
9 | CC(=O)N1CCc2cc(-n3nc(C(C)(C)C)cc3NC(=O)Nc3cccc(Cl)c3Cl)ccc21 [Example 107, 1-(1-(1-acetylindolin-5-yl)-3-t-butyl-1H-pyrazol-5-yl)-3-(2,3-dichlorophenyl)urea] | 180 nM | 2.1 nM | –
10 | CC(C)(C)c1cc(NC(=O)Nc2cc(F)ccc2F)n(-c2cc(CC(=O)NC(CO)CO)c3ccccc3c2)n1 [Example 99, 1-(3-t-butyl-1-(4-(2-(1,3-dihydroxypropan-2-ylamino)-2-oxoethyl)naphthalen-2-yl)-1H-pyrazol-5-yl)-3-(2,5-difluorophenyl)urea] | 38 nM | – | –
11 | CC(C)(C)c1cc(NC(=O)Nc2ccc(Cl)cc2)n(-c2ccc3c(c2)CN(C(=O)NS(C)(=O)=O)CC3)n1 [Example 128, N-(7-{3-t-butyl-5-[3-(4-chloro-phenyl)ureido]pyrazol-1-yl}-3,4-dihydro-1H-isoquinoline-2-carbonyl)methane-sulfonamide] | 7500 nM | 67 nM | –
12 | CC(C)(C)c1cc(NC(=O)Nc2cc(F)c(F)cc2F)n(-c2cc(CO)c3ccccc3c2)n1 [Example 64, 1-(3-t-butyl-1-(4-(hydroxymethyl)naphthalen-2-yl)-1H-pyrazol-5-yl)-3-(2,4,5-trifluorophenyl)urea] | 63 nM | 3.3 nM | –
13 | CC(C)(C)c1cc(NC(=O)Nc2cc(F)cc(F)c2F)n(-c2cc(CN)c3ccccc3c2)n1 [Example 70, 1-(1-(4-(aminomethyl)naphthalen-2-yl)-3-t-butyl-1H-pyrazol-5-yl)-3-(2,3,5-trifluorophenyl)urea] | 50 nM | 5 nM | –
14 | CC(C)(C)c1cc(NC(=O)Nc2cccc(Cl)c2Cl)n(-c2cc(CC(=O)O)c3ccccc3c2)n1 [Example 77, 2-(3-(3-t-butyl-5-(3-(2,3-dichlorophenyl)-ureido)-1H-pyrazol-1-yl)naphthalen-1-yl)acetic acid] | 260 nM | 3.9 nM | –
15 | CC(C)(C)c1cc(NC(=O)Nc2ccc(F)cc2)n(-c2cc(CC(N)=O)c3ccccc3c2)n1 [Example 84, 1-(1-(4-(2-amino-2-oxoethyl)naphthalen-2-yl)-3-t-butyl-1H-pyrazol-5-yl)-3-(4-fluorophenyl)urea] | 390 nM | 11 nM | –
16 | CC(C)(C)c1cc(NC(=O)Nc2cccc(Cl)c2Cl)n(-c2cccc(CC(=O)NC[C@H](O)CO)c2)n1 [Example 36, 1-(3-t-butyl-1-(3-(2-((S)-2,3-dihydroxypropylamino)-2-oxoethyl)phenyl)-1H-pyrazol-5-yl)-3-(2,3-dichloro-phenyl)urea] | 720 nM | – | –
17 | CC(C)(C)c1cc(NC(=O)Nc2ccc(F)c(F)c2F)n(-c2cc(CO)c3ccccc3c2)n1 [Example 62, 1-(3-t-butyl-1-(4-(hydroxylmethyl)naphthalen-2-yl)-1H-pyrazol-5-yl)-3-(2,3,4-trifluorophenyl)urea] | 110 nM | 3.2 nM | –

Row | Compound | IC50 (Abl kinase) | IC50 (B-Raf(V599E) kinase) | inhibition at 10 µM (Abl kinase; @ 10 μM, read-out: Abl Data (percent inhibition))
18 | CC(C)(C)c1cc(NC(=O)Nc2cccc(C#N)c2)n(-c2ccc3c(c2)NCC3)n1 [Example 114, 1-(3-t-butyl-1-(indolin-6-yl)-1H-pyrazol-5-yl)-3-(3-cyanophenyl)urea] | 640 nM | 115 nM | –
19 | CC(C)(C)c1cc(NC(=O)Nc2cccc(Cl)c2Cl)n(-c2cc(CCN)c3ccccc3c2)n1 [Example 193, 1-(1-(4-(2-aminoethyl)naphthalen-2-yl)-3-t-butyl-1H-pyrazol-5-yl)-3-(2,3-dichlorophenyl)urea] | 81 nM | 2.6 nM | –
20 | COc1cccc(-n2nc(C(C)(C)C)cc2NC(=O)Nc2cc(Cl)cc(Cl)c2)c1 [Example 14, 1-(3-t-butyl-1-(3-methoxyphenyl)-1H-pyrazol-5-yl)-3-(3,5-dichlorophenyl)urea] | 2400 nM | 70 nM | –
21 | CC(C)(C)c1cc(NC(=O)Nc2ccc(F)c(F)c2F)n(-c2ccc3c(c2)CCNC3)n1 [Example 147, 1-(3-t-butyl-1-(1,2,3,4-tetrahydroiso-quinolin-6-yl)-1H-pyrazol-5-yl)-3-(2,3,4-trifluorophenyl)-urea] | 140 nM | 10 nM | –
22 | CC(C)(C)c1cc(NC(=O)Nc2cccc(C#N)c2)n(-c2ccc3c(c2)CCNCC3)n1 [Example 167, 1-(3-t-butyl-1-(2,3,4,5-tetrahydro-1H-benzo[d]azepin-7-yl)-1H-pyrazol-5-yl)-3-(3-cyanophenyl)urea] | 310 nM | – | –
23 | Cc1ccc(NC(=O)Nc2cc(C(C)(C)C)nn2-c2ccc3c(c2)CCNC3)cc1Nc1ncccn1 [Example 142, 1-(3-t-butyl-1-(1,2,3,4-tetrahydro-isoquinolin-6-yl)-1H-pyrazol-5-yl)-3-(4-methyl-3-(pyrimidin-2-ylamino)phenyl)-urea] | 170 nM | 35 nM | –
24 | CCOC(=O)Cc1cc(-n2nc(C(C)(C)C)cc2NC(=O)Nc2cccc(Cl)c2Cl)cc2ccccc12 [Example 76] | – | 11 nM | 31%
25 | CC(C)(C)c1cc(NC(=O)Nc2cccc(Cl)c2Cl)n(-c2cccc(-c3cccnc3)c2)n1 [Example 276, 1-[5-t-butyl-2-(3-pyridin-3-yl-phenyl)-2H-pyrazol-3-yl]-3-(2,3-dichlorophenyl)urea] | 2300 nM | 4.9 nM | –
26 | CC(C)(C)c1cc(NC(=O)Nc2cccc(Cl)c2Cl)n(-c2cc(CC(N)=O)c3ccccc3c2)n1 [Example 78, 2-(3-{3-t-butyl-5-[3-(2,3-dichlorophenyl)ureido]pyrazol-1-yl}naphthalen-1-yl)acetamide] | 72 nM | 3.5 nM | –
27 | CC(C)(C)c1cc(NC(=O)Nc2cccc(C(F)(F)F)c2)n(-c2cccc(C#N)c2)n1 [Example 11] | 5100 nM | – | –
28 | CC(C)(C)c1cc(NC(=O)Nc2ccc(F)cc2F)n(-c2cc(CO)c3ccccc3c2)n1 [Example 63, 1-(3-t-butyl-1-(4-(hydroxylmethyl)naphthalen-2-yl)-1H-pyrazol-5-yl)-3-(2,4-difluorophenyl)urea] | 300 nM | 4 nM | –
29 | CC(C)(C)c1cc(NC(=O)Nc2cc(F)cc(F)c2)n(-c2cc(CO)c3ccccc3c2)n1 [Example 59, 1-(3-t-butyl-1-(4-(hydroxymethyl)naphthalen-2-yl)-1H-pyrazol-5-yl)-3-(3,5-difluorophenyl)urea] | 79 nM | 8.7 nM | –
30 | COc1cccc(NC(=O)Nc2cc(C(C)(C)C)nn2-c2cccc(C#N)c2)c1 [Example 10] | 4300 nM | – | –
31 | CC(C)(C)c1cc(NC(=O)Nc2cc(F)ccc2F)n(-c2cc(CC(N)=O)c3ccccc3c2)n1 [Example 87, 1-(1-(4-(2-amino-2-oxoethyl)naphthalen-2-yl)-3-t-butyl-1H-pyrazol-5-yl)-3-(2,5-difluorophenyl)urea] | 73 nM | – | –
32 | CC(C)(C)c1cc(NC(=O)Nc2cc(F)c(F)c(F)c2)n(-c2cc(CC(=O)NCC(O)CO)c3ccccc3c2)n1 (centres unmarked) [Example 98] | 34 nM | – | –
33 | CCOC(=O)c1cc(-n2nc(C(C)(C)C)cc2NC(=O)Nc2cccc(Cl)c2Cl)cc2ccccc12 [Example 58, 3-{3-t-butyl-5-[3-(2,3-dichlorophenyl)ureido]-pyrazol-1-yl}naphthalene-1-carboxylic acid ethyl ester] | 4700 nM | – | –

From patent US8163756B2 (priority 2004, dated 2012)
